According to PMC8187479, “Sugar phosphate activation of the stress sensor eIF2B” (Nature Communications, 2021):

Each compound was assayed against T1, eIF2Bα (Homo sapiens, UniProt Q14232) (assay: MIDAS (mass spectrometry integrated with equilibrium dialysis) metabolite binding screen). Conditions: MIDAS metabolite binding screen with eIF2Bα; sheet "eIF2Ba".
T1 construct: made in house; host or cells: E. coli BL21(DE3)
T1 sequence (Q14232 1-305): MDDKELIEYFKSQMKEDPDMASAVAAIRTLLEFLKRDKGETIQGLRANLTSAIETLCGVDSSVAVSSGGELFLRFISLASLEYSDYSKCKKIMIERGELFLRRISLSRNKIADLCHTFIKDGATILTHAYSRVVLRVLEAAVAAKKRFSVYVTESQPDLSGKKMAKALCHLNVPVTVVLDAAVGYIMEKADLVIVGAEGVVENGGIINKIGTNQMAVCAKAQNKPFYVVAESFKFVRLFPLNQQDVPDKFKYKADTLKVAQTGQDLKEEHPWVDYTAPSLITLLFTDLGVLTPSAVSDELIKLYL
Method: Metabolites were combined into four defined screening pools. […] To the reverse side, 300 μL of 50 μM per metabolite pool was aliquoted and sealed (metabolite chamber). Loaded dialysis plates were placed in the dark at 4 °C on a rotating shaker (120 rpm) and incubated for 40 h. Post-dialysis, metabolites were isolated from each chamber by cold methanol extraction. Each sample was analyzed in technical triplicate by FIA-MS on a SCIEX X500R QTOF MS with interspersed blanks injections. The input metabolite pools were assayed at the beginning, middle, and end of each MS method batch for QC and normalization.
MIDAS FIA-MS spectra were processed in SCIEX OS 1.6 software to determine metabolite abundances by integrating the mean area under the curve for each extracted ion chromatogram. For each dialysis replicate, log2(fold change) for each metabolite was calculated as the difference between the log2 abundance in the protein chamber and metabolite chamber. For each technical triplicate, up to one outlier was removed using a z-score cutoff of five (<0.1% of observations). The corrected technical replicates were collapsed to one mean fold-change summary per protein-metabolite pair. To remove fold-change variation that was not specific to a given metabolite-protein pair, the first three principal components of the total screening dataset were removed on a per metabolite pool basis by subtracting the projection of the first 3 principal components, creating log2(corrected fold change). Protein-metabolite z-scores were determined by comparing the target protein-metabolite log2(corrected fold change) to a no-signal model for that metabolite using measures of the central tendency (median) and standard deviation (extrapolated from the 25–75% quantiles), which are robust to the signals in the tails of a metabolite’s fold-change distribution. Z-scores were false-discovery rate controlled using Storey’s q-value (qvalue, R) and protein-metabolite interactions with q-values < 0.1 were considered significant.
With `CC(=O)N[C@H]1[C@H]([C@H](O)[C@H](O)CO)O[C@](OP(=O)(O)OC[C@H]2O[C@@H](n3ccc(N)nc3=O)[C@H](O)[C@@H]2O)(C(=O)O)C[C@@H]1O` the “log2(corrected fold change)” value was -0.01546.
For `CC(=O)NC1C(OP(=O)(O)OP(=O)(O)OCC2OC(n3ccc(=O)[nH]c3=O)C(O)C2O)OC(CO)C(O)C1O` (stereo not shown), the “log2(corrected fold change)” value was -0.0409.
In the case of `Nc1c(O)cccc1C(=O)CC(N)C(=O)O` (racemic) [3-Hydroxy-DL-kynurenine], the “log2(corrected fold change)” value is reported as 0.08675.
For `NC(CP(=O)(O)O)C(=O)O` (racemic) [DL-2-Amino-3-phosphonopropionic acid], the “log2(corrected fold change)” value was -0.05707.
`O=C(O)C(O)c1ccc(O)c(O)c1` (racemic) [DL-3,4-Dihydroxymandelic acid] was tested, and the “log2(corrected fold change)” value was -0.05412.
In the case of `NC(CCS)C(=O)O` (racemic) [DL-Homocysteine], the “log2(corrected fold change)” value is reported as -0.005857.
In the case of `O=C(O)CC(C(=O)O)C(O)C(=O)O` (racemic) [DL-Isocitric acid], the “log2(corrected fold change)” value is reported as -0.01609.
In the case of `Cn1cnc(CCN)c1` [1-Methylhistamine], the “log2(corrected fold change)” value is reported as -0.03686.
In the case of `C[n+]1cccc(C(N)=O)c1` [1-Methylnicotinamide], the “log2(corrected fold change)” value is reported as 0.02855.
In the case of `O=C(O)C(O)CO` (stereo not shown) [2,3-Dihydroxypropanoic acid], the “log2(corrected fold change)” value is reported as 0.03679.
In the case of `OCC(O)COC1OC(CO)C(O)C(O)C1O` (stereo not shown) [2,3-Dihydroxypropyl hexopyranoside], the “log2(corrected fold change)” value is reported as 0.03531.
With `O=C(O)C(COP(=O)(O)O)OP(=O)(O)O` [2,3-Diphospho-D-glyceric acid] the “log2(corrected fold change)” value was 0.003153.
With `O=C(O)c1cc(O)ccc1O` [2,5-Dihydroxybenzoic acid] the “log2(corrected fold change)” value was 0.05271.
`O=C(O)C[C@H](O)[C@H](O)CO` [2-Deoxy-D-ribonic acid] was tested, and the “log2(corrected fold change)” value was -0.009975.
`Nc1ncnc2c1ncn2C1CC(O)C(CO)O1` (stereo not shown) [2-Deoxyadenosine] was tested, and the “log2(corrected fold change)” value was 0.4061.
With `Nc1ccn([C@H]2C[C@H](O)[C@@H](COP(=O)(O)OP(=O)(O)O)O2)c(=O)n1` [2-Deoxycytidine 5-diphosphate] the “log2(corrected fold change)” value was 0.01712.
With `Nc1nc2c(ncn2[C@H]2C[C@H](O)[C@@H](COP(=O)(O)OP(=O)(O)O)O2)c(=O)[nH]1` [2-Deoxyguanosine 5-diphosphate] the “log2(corrected fold change)” value was -0.09804.
In the case of `Nc1nc2c(ncn2[C@H]2C[C@H](O)[C@@H](COP(=O)(O)OP(=O)(O)OP(=O)(O)O)O2)c(=O)[nH]1` [2-Deoxyguanosine 5-triphosphate], the “log2(corrected fold change)” value is reported as 0.05437.
With `O=c1ccn([C@H]2C[C@H](O)[C@@H](CO)O2)c(=O)[nH]1` [2-Deoxyuridine] the “log2(corrected fold change)” value was 0.04824.
In the case of `CCC(C)C(O)C(=O)O` (stereo not shown) [2-Hydroxy-3-methylpentanoic acid], the “log2(corrected fold change)” value is reported as -0.0302.
`CC(C)CC(O)C(=O)O` (stereo not shown) [2-Hydroxyisocaproic acid] was tested, and the “log2(corrected fold change)” value was -0.0302.
`O=C(O)CCCC(=O)C(=O)O` [2-Oxoadipic acid] was tested, and the “log2(corrected fold change)” value was -0.03769.
In the case of `O=C(O)COP(=O)(O)O` [2-Phosphoglycolic acid], the “log2(corrected fold change)” value is reported as 0.0426.
`CC(C)=CC(=O)O` [3,3-Dimethylacrylic acid] was tested, and the “log2(corrected fold change)” value was 0.01899.
In the case of `NC1CCCNC1=O` (stereo not shown) [3-Aminopiperidin-2-one], the “log2(corrected fold change)” value is reported as 0.003124.
`O=C(O)c1ccoc1` [3-Furoic acid] was tested, and the “log2(corrected fold change)” value was -0.01812.
For `CC(O)(CC(=O)O)CC(=O)O` [3-Hydroxy-3-methylglutaric acid], the “log2(corrected fold change)” value was 0.0406.
For `CC(O)(CC(=O)O)CC(=O)SCCNC(=O)CCNC(=O)[C@H](O)C(C)(C)COP(=O)(O)OP(=O)(O)OC[C@H]1O[C@@H](n2cnc3c(N)ncnc32)[C@H](O)[C@@H]1OP(=O)(O)O` (stereo partly shown) [3-Hydroxy-3-methylglutaryl coenzyme A], the “log2(corrected fold change)” value was 0.00866.
With `Nc1c(O)cccc1C(=O)O` [3-Hydroxyanthranilic acid] the “log2(corrected fold change)” value was -0.02136.
In the case of `CC(O)CC(=O)SCCNC(=O)CCNC(=O)[C@H](O)C(C)(C)COP(=O)(O)OP(=O)(O)OC[C@H]1O[C@@H](n2cnc3c(N)ncnc32)[C@H](O)[C@@H]1OP(=O)(O)O` (stereo partly shown) [3-Hydroxybutyryl coenzyme A], the “log2(corrected fold change)” value is reported as 0.00715.
In the case of `O=C(O)CCO` [3-Hydroxypropionic acid], the “log2(corrected fold change)” value is reported as -0.02892.
In the case of `CC(=CC(=O)O)CC(=O)O` [3-Methylglutaconic acid], the “log2(corrected fold change)” value is reported as -0.01192.

Same assay, conditions: MIDAS screen, sheet eIF2Ba; metabolites screened in pools 1-4; p-value and q-value given
In the case of `OCC(O)c1ccc(O)c(O)c1` (racemic) [DL-3,4-Dihydroxyphenyl glycol], the “log2(corrected fold change)” value is reported as -0.07769.
For `CC(CNC(N)=O)C(=O)O` (racemic) [DL-3-Ureidoisobutyric acid], the “log2(corrected fold change)” value was 0.1976.
`COc1cc(C(O)C(=O)O)ccc1O` (racemic) [DL-4-Hydroxy-3-methoxymandelic acid] was tested, and the “log2(corrected fold change)” value was -0.08249.
For `NCC(O)CCC(N)C(=O)O` (racemic) [DL-5-Hydroxylysine], the “log2(corrected fold change)” value was -0.09937.
`N[C@H](CCSSCC[C@@H](N)C(=O)O)C(=O)O` (racemic) [DL-Homocystine] was tested, and the “log2(corrected fold change)” value was 0.09463.
`O=C(O)C(O)c1ccccc1` (racemic) [DL-Mandelic acid] was tested, and the “log2(corrected fold change)” value was 0.3212.
With `NC(=O)CCC(N)C(=O)O` (stereo in doubt) [D-Glutamine] the “log2(corrected fold change)” value was 0.1976.
`NCCCN` [1,3-Diaminopropane] was tested, and the “log2(corrected fold change)” value was 0.2387.
`Cn1cnc(C[C@H](N)C(=O)O)c1` [1-Methyl-L-histidine] was tested, and the “log2(corrected fold change)” value was -0.1945.
In the case of `O=C(O)c1cccnc1C(=O)O` [2,3-Pyridinedicarboxylic acid], the “log2(corrected fold change)” value is reported as 0.05596.
With `O=Cc1cc(O)ccc1O` [2,5-Dihydroxybenzaldehyde] the “log2(corrected fold change)” value was 0.1295.
With `CCC(CO)C(=O)O` (stereo not shown) [2-(Hydroxymethyl)butanoic acid] the “log2(corrected fold change)” value was 0.09429.
With `COc1cccc(C(=O)O)c1N` [2-Amino-3-methoxybenzoic acid] the “log2(corrected fold change)” value was -0.1539.
With `NC(CCCC(=O)O)C(=O)O` (stereo not shown) [2-Aminoadipic acid] the “log2(corrected fold change)” value was -0.07731.
For `Nc1ccn([C@H]2C[C@H](O)[C@@H](COP(=O)(O)O)O2)c(=O)n1` [2-Deoxy-5-cytidylic acid], the “log2(corrected fold change)” value was 0.04298.
`O=CC[C@H](O)[C@H](O)CO` [2-Deoxy-D-ribose] was tested, and the “log2(corrected fold change)” value was -0.2249.
For `Nc1ncnc2c1ncn2[C@H]1C[C@H](O)[C@@H](COP(=O)(O)OP(=O)(O)OP(=O)(O)O)O1` [2-Deoxyadenosine 5-triphosphate], the “log2(corrected fold change)” value was -0.07151.
For `Nc1ccn([C@H]2C[C@H](O)[C@@H](CO)O2)c(=O)n1` [2-Deoxycytidine], the “log2(corrected fold change)” value was 0.344.
In the case of `Nc1nc2c(ncn2[C@H]2C[C@H](O)[C@@H](CO)O2)c(=O)[nH]1` [2-Deoxyguanosine], the “log2(corrected fold change)” value is reported as -0.1329.
In the case of `O=c1[nH]cnc2c1ncn2[C@H]1C[C@H](O)[C@@H](CO)O1` [2-Deoxyinosine], the “log2(corrected fold change)” value is reported as 0.06917.
In the case of `O=P(O)(O)OC[C@H]1O[C@@H](O)C[C@@H]1O` [2-Deoxyribose-5-phosphate], the “log2(corrected fold change)” value is reported as 1.609.
In the case of `O=c1ccn([C@H]2C[C@H](O)[C@@H](COP(=O)(O)O)O2)c(=O)[nH]1` [2-Deoxyuridine 5-monophosphate], the “log2(corrected fold change)” value is reported as 0.2736.
`CCC(O)C(=O)O` (stereo not shown) [2-Hydroxybutanoic acid] was tested, and the “log2(corrected fold change)” value was 0.07137.
In the case of `O=C(O)Cc1ccccc1O` [2-Hydroxyphenylacetic acid], the “log2(corrected fold change)” value is reported as -0.07366.
`CCC(=O)C(=O)O` [2-Ketobutyric acid] was tested, and the “log2(corrected fold change)” value was -0.05529.
For `CC(CCC(=O)O)C(=O)O` (stereo not shown) [2-Methylglutaric acid], the “log2(corrected fold change)” value was -0.09665.
In the case of `N[C@@H](Cc1ccc(O)c(O)c1)C(=O)O` [3,4-Dihydroxy-L-phenylalanine], the “log2(corrected fold change)” value is reported as 0.5098.
`O=C(O)Cc1ccc(O)c(O)c1` [3,4-Dihydroxyphenylacetic acid] was tested, and the “log2(corrected fold change)” value was 0.1411.
With `N[C@@H](Cc1cc(I)c(O)c(I)c1)C(=O)O` [3,5-Diiodo-L-tyrosine] the “log2(corrected fold change)” value was 0.05791.
`CC(CN)C(=O)O` (stereo not shown) [3-Aminoisobutyric acid] was tested, and the “log2(corrected fold change)” value was -0.1018.
`CC(O)CC(=O)O` (stereo not shown) [3-Hydroxybutyric acid] was tested, and the “log2(corrected fold change)” value was 0.07137.
For `N[C@@H](Cc1ccc(O)c(I)c1)C(=O)O` [3-Iodo-L-tyrosine], the “log2(corrected fold change)” value was 0.6259.
In the case of `COc1cc(CCN)ccc1O` [3-Methoxytyramine], the “log2(corrected fold change)” value is reported as 0.126.
For `CCC(C)C(=O)C(=O)O` (stereo not shown) [3-Methyl-2-oxovaleric acid], the “log2(corrected fold change)” value was -0.05419.
For `CC(CC(=O)O)CC(=O)O` [3-Methylglutaric acid], the “log2(corrected fold change)” value was -0.09665.
